Laboratory results reported in ChEMBL document CHEMBL1201862, “PubChem BioAssay data set” (2004).
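Cells were grown in 96-well plates and exposed to each compound for 48 hours at five concentrations; endpoints were interpolated linearly between bracketing concentrations, or set to the highest concentration if not reached. Abbreviation: GI50, concentration required for 50% inhibition of growth.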 Active and inactive are the calls of the source. Rule as the data show it: active = GI50 up to about 1.1 µM and inactive = higher. Where a SMILES comes first, the peptide text is derived from it. The star is where a group is joined. Cbz = O=C(OCc1ccccc1)*

How the values were obtained:
Assay in all cases: growth of human tumour cells (NCI), 48 h
SK-MEL-2 = tested on: SK-MEL-2
HOP-62 = tested on: HOP-62
NCI/ADR-RES = tested on: NCI/ADR-RES
BT-549 = tested on: BT-549
SR = tested on: SR
SW-620 = tested on: SW-620
SNB-19 = tested on: SNB-19
U-251 = tested on: U-251
MDA-MB-435 = tested on: MDA-MB-435
UO-31 = tested on: UO-31
NCI-H226 = tested on: NCI-H226
A549 = tested on: A549
M14 = tested on: M14
MDA-N = tested on: MDA-N
786-0 = tested on: 786-0
NCI-H23 = tested on: NCI-H23
COLO 205 = tested on: COLO 205
IGROV-1 = tested on: IGROV-1
EKVX = tested on: EKVX
HL-60 = tested on: HL-60

| Structure (SMILES) | GI50 (SK-MEL-2) | GI50 (HOP-62) | GI50 (NCI/ADR-RES) | GI50 (BT-549) | GI50 (SR) | GI50 (SW-620) | GI50 (SNB-19) | GI50 (U-251) | GI50 (MDA-MB-435) | GI50 (UO-31) | GI50 (NCI-H226) | GI50 (A549) | GI50 (M14) | GI50 (MDA-N) | GI50 (786-0) | GI50 (NCI-H23) | GI50 (COLO 205) | GI50 (IGROV-1) | GI50 (EKVX) | GI50 (HL-60) |
| --- | --- | --- | --- | --- | --- | --- | --- | --- | --- | --- | --- | --- | --- | --- | --- | --- | --- | --- | --- | --- |
| Cc1ccnc2nc(-c3ccc(Cl)cc3)cc(O)c12 | 72.4 µM (inactive) | 8.41 µM (inactive) | 3.88 µM (inactive) | > 100 µM (inactive) | 1.41 µM (inactive) | 3.35 µM (inactive) | 19.1 µM (inactive) | 4.07 µM (inactive) | 0.578 µM (active) | 13.1 µM (inactive) | 5.16 µM (inactive) | 9.08 µM (inactive) | 8.63 µM (inactive) | 0.752 µM (active) | 4.46 µM (inactive) | 6.31 µM (inactive) | 2.33 µM (inactive) | 3.01 µM (inactive) | 29.7 µM (inactive) | 1.58 µM (inactive) |
| O=C1C2=C(c3ccccc31)C(c1ccccc1)N1C(=O)CSC1=N2 (stereo not given) | 49 µM (inactive) | 83.8 µM (inactive) | 24 µM (inactive) | 24.5 µM (inactive) | 26.4 µM (inactive) | 50.8 µM (inactive) | 55.7 µM (inactive) | > 63 µM (inactive) | 17.4 µM (inactive) | 34.8 µM (inactive) | 38.5 µM (inactive) | 67.1 µM (inactive) | 49.4 µM (inactive) | 17 µM (inactive) | > 54.6 µM (inactive) | 56.4 µM (inactive) | > 56.4 µM (inactive) | > 57.4 µM (inactive) | > 55.7 µM (inactive) | 40.1 µM (inactive) |
| COc1ccc2nc(NC(=O)/C(C#N)=C/c3ccccc3)sc2c1 | > 100 µM (inactive) | > 64.1 µM (inactive) | > 39 µM (inactive) | 52.2 µM (inactive) | 4.43 µM (inactive) | 46.9 µM (inactive) | > 100 µM (inactive) | 50.1 µM (inactive) | 24.5 µM (inactive) | 36.8 µM (inactive) | > 58.2 µM (inactive) | 59.4 µM (inactive) | > 54.1 µM (inactive) | 34.8 µM (inactive) | 44.9 µM (inactive) | > 67.3 µM (inactive) | 48.3 µM (inactive) | 29.4 µM (inactive) | 38.4 µM (inactive) | 9.35 µM (inactive) |
| COc1ccc2c(c1)CN([C@@H](C)[C@H]1CC[C@H]3[C@@H]4CC[C@H]5C[C@@H](O)CC[C@]5(C)[C@H]4CC[C@]13C)CO2 | 1.96 µM (inactive) | 2 µM (inactive) | 3.37 µM (inactive) | 3.38 µM (inactive) | 0.321 µM (active) | 2.92 µM (inactive) | 1.96 µM (inactive) | 1.62 µM (inactive) | 1.75 µM (inactive) | 1.81 µM (inactive) | 7.36 µM (inactive) | 1.76 µM (inactive) | 1.57 µM (inactive) | 1.7 µM (inactive) | 1.3 µM (inactive) | 1.89 µM (inactive) | 2 µM (inactive) | 3.95 µM (inactive) | 3.36 µM (inactive) | 2.47 µM (inactive) |
| CCOC(=O)CCC(NC(=O)C(Cc1ccccc1)NC(=O)OCc1ccccc1)C(=O)OCC (stereo not drawn) (Cbz-Phe-Glu(OEt)-OEt; configuration not given here) | 22.3 µM (inactive) | 18.5 µM (inactive) | 18.2 µM (inactive) | > 100 µM (inactive) | 27 µM (inactive) | 18.2 µM (inactive) | 19.7 µM (inactive) | 14.9 µM (inactive) | 18.3 µM (inactive) | 17.4 µM (inactive) | 16.6 µM (inactive) | 18.8 µM (inactive) | 15.9 µM (inactive) | 17.2 µM (inactive) | 18.1 µM (inactive) | 17 µM (inactive) | 19.4 µM (inactive) | 18.1 µM (inactive) | 20.4 µM (inactive) | 20.1 µM (inactive) |
